Results as given in article PMC6710349, “Action of Dicumarol on Glucosamine-1-Phosphate Acetyltransferase of GlmU and Mycobacterium tuberculosis” (Frontiers in Microbiology, 2019).

Target: GlmU (glucosamine-1-phosphate acetyltransferase / N-acetylglucosamine-1-phosphate uridyltransferase) (Mycobacterium tuberculosis, UniProt P9WMN3)
Assay: DTNB colorimetric acetyltransferase assay, with Lineweaver-Burk kinetics
Type: biochemical

Sequence of GlmU (glucosamine-1-phosphate acetyltransferase / N-acetylglucosamine-1-phosphate uridyltransferase) (P9WMN3 2-495 limits assumed): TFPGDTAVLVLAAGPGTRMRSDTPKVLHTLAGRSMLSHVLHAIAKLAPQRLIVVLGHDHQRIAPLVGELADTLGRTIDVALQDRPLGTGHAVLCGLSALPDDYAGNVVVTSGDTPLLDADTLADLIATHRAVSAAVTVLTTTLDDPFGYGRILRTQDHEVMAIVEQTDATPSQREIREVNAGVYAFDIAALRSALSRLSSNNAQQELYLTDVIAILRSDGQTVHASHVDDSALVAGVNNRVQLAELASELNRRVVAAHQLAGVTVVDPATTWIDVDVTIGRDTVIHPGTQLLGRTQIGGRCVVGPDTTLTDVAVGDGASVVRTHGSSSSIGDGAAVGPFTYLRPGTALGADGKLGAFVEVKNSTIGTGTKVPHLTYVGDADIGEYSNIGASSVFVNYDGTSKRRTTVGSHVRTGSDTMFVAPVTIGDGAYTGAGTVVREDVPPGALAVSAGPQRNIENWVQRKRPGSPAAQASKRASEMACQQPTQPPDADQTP

`O=c1oc2ccccc2c(O)c1Cc1c(O)c2ccccc2oc1=O` [compound 22, 3,3′-methylene-bis-4-hydroxycoumarin] gave an IC50 of 13.7 µM.
